Values quoted from earlier work as cited in article PMC8068036, “Synthesis of New Biscoumarin Derivatives, In Vitro Cholinesterase Inhibition, Molecular Modelling and Antiproliferative Effect in A549 Human Lung Carcinoma Cells” (International Journal of Molecular Sciences, 2021).

Key:
rat brain AChE = test system: rat brain AChE; set-up: method as in PMID 10213168; conditions: cited from earlier work
hAChE = test system: hAChE; set-up: method as in PMID 25812965, PMID 27744252, PMID 10213168; conditions: Figure 2; cited from earlier work
AChE = test system: AChE; set-up: method as in PMID 25812965, PMID 27744252, PMID 10213168; conditions: Figure 2; cited from earlier work
BChE = test system: BChE; set-up: method as in PMID 25812965, PMID 27744252, PMID 10213168; conditions: Figure 2; cited from earlier work
hMAO-B = test system: hMAO-B; set-up: method as in PMID 25812965, PMID 27744252, PMID 10213168; conditions: printed in Figure 2, quantity not named; cited from earlier work

Q: Which IC50 (rat brain AChE) does the source give for `COc1cc2oc(=O)c(C)c(C)c2cc1OCCCN1CCN(c2ccccc2OC)CC1` [KA-672, ensaculin] here?
A: 360 nM

Q: With `Cc1c(C)c2ccc(OCCN3CCN(CCNc4c5c(nc6ccccc46)CCCC5)CC3)cc2oc1=O` [compound 6] as the molecule, how does the IC50 (hAChE) read?
A: 16.1 nM

Q: Which IC50 (AChE) does the source give for `Cc1c(N=O)c(=O)oc2cc(CCCN3CCC(Cc4ccccc4)CC3)ccc12` [compound 7] here?
A: 300 nM

Q: And the IC50 (BChE)?
A: 980 nM

Q: And the IC50 (hMAO-B)?
A: 5900 nM
